1 molecule from PMC9101764, “Synthesis and In Vitro Characterization of Selective Cannabinoid CB2 Receptor Agonists: Biological Evaluation against Neuroblastoma Cancer Cells” (Molecules, 2022) can be followed below.

SMILES strings stand for the structures.

Series [1] addresses T1, hCB2R (Homo sapiens, UniProt P34972).
T1 construct: host or cells: HitHunter CHO-K1 cells
Put plainly: HitHunter cAMP assay: inhibition of FSK-stimulated cAMP accumulation in CHO cells. Format: cell-based. Here is the method: For the cAMP inhibition assay, cells were treated with 10 μM FSK and synthetized compounds for 90 min to assess compound concentration-dependent activity.
(§1) CHO cells stably expressing hCB1R or hCB2R were maintained at 37 °C and 5% CO2 in Gibco Ham’s F-12 nutrient mix (Fisher Scientific, Loughborough, UK ) supplemented with 2 mM L-glutamine, 10% fetal bovine serum (FBS), 0.6% penicillin−streptomycin (Fisher Scientific, Loughborough UK), and the disulfate salt of geneticin (G418) as previously described (Sigma-Aldrich, Poole, UK). For subsequent radioligand displacement assays, membranes were prepared by scraping cells from flasks, centrifuging the cells, and storing the cell pellet at −20 °C. When required for us, cell pellets were defrosted and diluted in tris buffer (50 mM Tris-HCl and 50 mM Tris-base). As we have described in previous studies, HitHunter (cAMP) and PathHunter (βarrestin2) CHO-K1 cells stably expressing hCB1R or hCB2R from DiscoveRx® (Eurofins, Fremont, CA, USA) were maintained at 37 °C, 5% CO2 in F-12 DMEM containing 10% FBS and 1% Pen/Strep with 800 µg/mL geneticin (HitHunter) or 800 µg/mL G418 and 300 µg/mL hygromycin B (PathHunter).
The quantification of FSK-stimulated cAMP accumulation using the DiscoveRx HitHunter assay (DiscoveRx, Eurofins, Fremont, CA, USA) has been described in detail previously elsewhere. Briefly, 20,000 cells/well were plated in low-volume 96-well plates and incubated overnight in Opti-MEM with 1% FBS at 37 °C and 5% CO2. The next day, the media were replaced with cell assay buffer (DiscoveRx). Immediately after this, the cells were simultaneously treated with 10 µM FSK and ligands for 90 min. Subsequent additions of cAMP antibody solution and cAMP working detection solutions followed the manufacturer’s directions (DiscoveRx) and cells were stored for 60 min at room temperature. cAMP solution A (DiscoveRx) was added according to the manufacturer’s directions followed by another 60 min room temperature incubation prior to chemiluminescence being measured on a Cytation5 plate reader (top read, gain 200, integration time 10,000 ms).
(§2) Estimates of Ki, EC50, and Emax were determined using non-linear regression three-parameters (GraphPad, Prism, v. 9.0).
(§3) Data are fitted to a non−linear regression (three parameter model, GraphPad v. 9.0). Data are mean ± S.E.M. of 6 independent experiments performed in triplicate.

The subject of another series is ERK1/2. Kind of series: ERK1/2 Western blot and densitometric analysis. The class given is cell-based, human. Particulars: SH-SY5Y cells. From the text:
Among the CB2R agonists tested, we selected FG158a as it provides the best dose–response curve in SH-SY5Y cells (Figure 4B). The effect of CB2R agonists on the ERK pathway has been previously detected in other tumor models such as a breast cancer model. The dysregulation of the ERK/MAPK pathway is crucial in neuroblastoma. […] We addressed the effect of FG158a on MAPK kinase activation by the evaluation of its component ERK1/2 in the presence and in the absence of the antagonist SR144528 (Figure 6).
After the treatment with FG158a (20 μM) in the presence and absence of SR144528 (added 1 h before the CB2R agonist at the concentration of 1 µM), SHSY5Y cells were centrifuged and cell pellets were lysed in R.I.P.A. buffer (50 mM Tris-HCl, pH = 7.4; 150 mM NaCl; […], 1% NP-40; 0.5% sodium deoxycholate; 0.1% SDS; 1:100 phosphatase and protease inhibitors, both added before the lysis). Samples were centrifuged (17,900× g 20′ at 4 °C) and protein concentration was determined by Bio-Rad Protein Assay (Bio-Rad, Berkeley, CA, USA) as previously described. […]
Figure 6 FG158a inhibition of ERK1/2 is mediated by CB2R. […] The statistical analysis was performed by parametric two tailed t-test (* p < 0.05 FG158a calculated with respect to the CTR; ^& p < 0.01 FG158a+SR144528 calculated with respect to FG158a).
(A western blot detects proteins with antibodies after separation by electrophoresis.)

Series [2] concerns the target T1, hCB2R. Kind of series: PathHunter β-arrestin2 recruitment assay in CHO cells. Format: cell-based. Here is the method: Compounds FG158a, FG160a, FG161a, and LV62 were also evaluated for their ability to recruit β-arrestin2, since G protein-coupled receptors also interact with β-arrestin, which facilitates receptor internalization, recycling, degradation, and signaling.
as §1
The quantification of β-arrestin2 recruitment using the DiscoveRx PathHunter assay has been described by our group previously and is summarized here.. Twenty thousand cells/well were grown overnight in Opti-MEM containing 1% FBS at 37 °C and 5% CO2 in low-volume 96 well plates. The next day, cells were treated with compounds for 90 min at 37 °C. Detection solution was added to cells according to the manufacturer’s directions (DiscoveRx) and cells were stored for 60 min at room temperature. After this incubation, chemiluminescence was quantified on a Cytation5 plate reader (top read, gain 200, integration time 10,000 ms).
as §2, §3
(Recruitment of arrestin is a read-out of receptor activation apart from second messengers.)

T1 sequence (P34972 whole entry): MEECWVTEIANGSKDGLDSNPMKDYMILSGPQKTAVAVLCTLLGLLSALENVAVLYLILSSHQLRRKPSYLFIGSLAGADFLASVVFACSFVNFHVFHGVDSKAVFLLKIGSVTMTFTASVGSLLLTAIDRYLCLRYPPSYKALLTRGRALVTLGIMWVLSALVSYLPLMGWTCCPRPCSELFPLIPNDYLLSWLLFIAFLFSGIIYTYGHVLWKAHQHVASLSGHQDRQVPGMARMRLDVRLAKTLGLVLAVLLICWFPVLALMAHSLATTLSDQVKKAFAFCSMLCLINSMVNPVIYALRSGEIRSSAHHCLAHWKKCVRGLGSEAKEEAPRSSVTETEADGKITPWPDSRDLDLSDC

In turn, `CC1CCC(NC(=O)c2cc3cccnc3n(CCCCCBr)c2=O)CC1` (stereo not shown) [FG158a, 1-(5-bromopentyl)-N-(4-methylcyclohexyl)-2-oxo-1,2-dihydro-1,8-naphthyridine-3-carboxamide] displayed a melting point of 121 to 123 °C. Also, the EC50 at hCB2R [1] was > 10 µM. In addition, the “modulation of cAMP response” value at hCB2R [1] (CHO cells expressing hCB2R, 10 μM FSK, 90 min) is listed as “not to affect this signaling pathway”. Also, the “effect on ERK1/2 expression in presence of SR144528” value with ERK1/2 (20 µM FG158a + SR144528 1 µM added 1 h before) is listed as “reversed the inhibitory effect”. Moreover, the “effect on ERK1/2 expression” value with ERK1/2 (20 µM, vs untreated control cells) was “inhibited ERK1/2 expression”. At hCB2R [2], the half-maximal effective concentration (EC50) was > 10 µM. Further, the “β-Arrestin2 Recruitment Emax (% CP55,940) ± S.E.M” value at hCB2R [2] (CHO cells expressing human CB2R, 90 min) is given as 46 ± 1.8 % CP55,940.

What is called EC50 is the concentration at which the effect is half-maximal. Higher therefore signals a need for much substance. In general, melting point refers to the temperature of the solid-liquid transition.
